Reference: publication PMC9939320 (Acta Pharmaceutica Sinica. B, 2022)

Assay: cytotoxicity
Type: cell-based

| SMILES | CC50 |
| --- | --- |
| CC1=CC[C@@H]2[C@]34CC[C@](O)(OC3)C(C)(C)[C@@H]4CC[C@@]2(C)[C@@]12Oc1cc(-c3cccnc3)oc(=O)c1[C@@H]2O [Compound 8, decaturin B] | > 100 µM |
| NC(=O)c1ncn([C@@H]2O[C@H](CO)[C@@H](O)[C@H]2O)n1 [Ribavirin] | > 100 µM |
